From ChEMBL document CHEMBL1201862, “PubChem BioAssay data set” (2004) come the findings set out here.

Some test systems named below: ACHN; COLO 205; DU-145; HCT-116; HCT-15; Hs-578T; IGROV-1; KM12; MCF7; MDA-MB-435; MDA-N; NCI-H23; NCI-H460; NCI-H522; OVCAR-4; PC-3; SK-MEL-5; SW-620; U-251; UO-31.
Common to all, as to assay: NCI tumour cell line growth inhibition, 48 h

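Test compounds were applied to cells in 96-well plates for 48 hours at 5 doses. Here, GI50 denotes the concentration required for 50% inhibition of growth.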 Active and inactive are the calls of the source. Rule as the data show it: active = GI50 up to about 1.1 µM and inactive = higher. Bounds are passed on as bounds.

As to `CCOC(=O)/C(C(N)=O)=C(/O)c1cnccn1`, the GI50 in the experiment on ACHN is > 100 µM (inactive); in the experiment on COLO 205, > 100 µM (inactive); in the experiment on DU-145, > 100 µM (inactive); with HCT-116 it was > 100 µM (inactive); with HCT-15, more than 100 µM; with Hs-578T, > 100 µM (inactive). The GI50 in the experiment with IGROV-1, in the experiment on KM12, with MCF7, in the experiment with MDA-MB-435, in the experiment on MDA-N and with NCI-H23 was > 100 µM (inactive) in each case. Also, the GI50 in the experiment with NCI-H460, in the experiment with NCI-H522, in the experiment on OVCAR-4, with PC-3, with SK-MEL-5 and with SW-620 was > 100 µM (inactive) each time. For the same compound, the GI50 in the experiment with U-251 and in the experiment with UO-31 was > 100 µM (inactive) in each case.
As for `COc1cc2c(c(O)c1OC)C(=O)[C@@H]1CCC(=O)N1C2`, the GI50 with ACHN is > 100 µM (inactive); with COLO 205 it was > 100 µM (inactive); in the experiment on DU-145, > 100 µM (inactive); in the experiment with HCT-116 it was > 100 µM (inactive); with HCT-15 it was more than 100 µM; in the experiment on Hs-578T it was > 100 µM (inactive). The GI50 with IGROV-1, in the experiment with KM12, with MCF7, in the experiment with MDA-MB-435, in the experiment with MDA-N and with NCI-H23 was > 100 µM (inactive) throughout. The GI50 in the experiment on NCI-H460, in the experiment with NCI-H522, with OVCAR-4, in the experiment with PC-3, in the experiment with SK-MEL-5 and in the experiment on SW-620 was > 100 µM (inactive) in each case. In addition, the GI50 with U-251 and with UO-31 was > 100 µM (inactive) each time.
Take `Clc1cccc(N2CCN(CCN3CCc4c([nH]c5ccccc45)C3c3cccnc3)CC2)c1` (stereo not given): the GI50 with ACHN was > 100 µM (inactive); with COLO 205 it was > 33.7 µM (inactive); with DU-145, > 31.6 µM (inactive); with HCT-116 it was 31.8 µM (inactive); with HCT-15, 8.81 µM; in the experiment with Hs-578T it was > 68.9 µM (inactive). The GI50 in the experiment with IGROV-1 is 9.59 µM (inactive); with KM12, 8.05 µM (inactive); in the experiment on MCF7, 19.2 µM (inactive); in the experiment with MDA-MB-435, > 100 µM (inactive); with MDA-N it was > 100 µM (inactive); in the experiment with NCI-H23 it was 78.5 µM (inactive). The GI50 with NCI-H460 was 8.75 µM (inactive); in the experiment on NCI-H522 it was 65.5 µM (inactive); in the experiment on OVCAR-4, 31.4 µM (inactive); in the experiment with PC-3, > 86.7 µM (inactive); with SK-MEL-5 it was 97.7 µM (inactive); in the experiment on SW-620, > 64.6 µM (inactive). For the same compound, the GI50 in the experiment on U-251 was 64.4 µM (inactive); in the experiment on UO-31 it was > 100 µM (inactive).
For `Cc1nc(Cl)c(CBr)c(Cl)n1`, the GI50 in the experiment on ACHN is 1.71 µM (inactive); in the experiment with COLO 205, 1.66 µM (inactive); with DU-145 it was 2.58 µM (inactive); in the experiment on HCT-116, 0.285 µM (active); in the experiment on HCT-15 it was 1.61 µM; with Hs-578T it was 1.49 µM (inactive). Moreover, the GI50 in the experiment with IGROV-1 is 1.72 µM (inactive); with KM12, 1.03 µM (active); in the experiment with MCF7, 0.769 µM (active); with MDA-MB-435, 1.64 µM (inactive); in the experiment with MDA-N, 1.44 µM (inactive); in the experiment with NCI-H23 it was 1.62 µM (inactive). Also, the GI50 is 2.33 µM (inactive) in the experiment with NCI-H460; 0.518 µM (active) in the experiment on NCI-H522; 1.83 µM (inactive) in the experiment on OVCAR-4; 1.63 µM (inactive) with PC-3; 0.914 µM (active) with SK-MEL-5; 0.351 µM (active) in the experiment on SW-620. For the same compound, the GI50 was 2.04 µM (inactive) in the experiment on U-251 and 1.68 µM (inactive) with UO-31.
For `O=c1[nH]nc(Nc2ccc(Cl)cc2)c2nnn(C3CCCCC3)c12`, the GI50 with ACHN was > 100 µM (inactive); in the experiment on COLO 205, 59.2 µM (inactive); in the experiment with DU-145, > 100 µM (inactive); in the experiment on HCT-116, 42.1 µM (inactive); in the experiment with HCT-15, 72.8 µM; in the experiment on Hs-578T, 34.5 µM (inactive). Moreover, the GI50 with IGROV-1 was > 100 µM (inactive); in the experiment on KM12, 65.5 µM (inactive); in the experiment on MCF7, 58.5 µM (inactive); with MDA-MB-435, 46.3 µM (inactive); with MDA-N it was > 100 µM (inactive); in the experiment on NCI-H23 it was 45.3 µM (inactive). The GI50 with NCI-H460 was 41.4 µM (inactive); with NCI-H522 it was 23.9 µM (inactive); in the experiment with OVCAR-4, 17 µM (inactive); in the experiment with PC-3 it was > 100 µM (inactive); with SK-MEL-5, > 100 µM (inactive); with SW-620 it was 62.4 µM (inactive). Further, the results for the GI50 in the experiment on U-251 and in the experiment with UO-31 were 25.2 µM (inactive) and > 100 µM (inactive), respectively.
Regarding `CC1(C)CO[P@@](=S)(c2ccccn2)O[C@@H]1c1ccccc1`, the GI50 was > 100 µM (inactive) in the experiment on ACHN; > 100 µM (inactive) with COLO 205; > 100 µM (inactive) with DU-145; 93.3 µM (inactive) with HCT-116; 94.4 µM in the experiment with HCT-15; > 100 µM (inactive) in the experiment with Hs-578T. The GI50 is > 100 µM (inactive) with IGROV-1; > 100 µM (inactive) in the experiment with KM12; > 100 µM (inactive) in the experiment on MCF7; > 100 µM (inactive) in the experiment with MDA-MB-435; > 100 µM (inactive) in the experiment with MDA-N; 89.3 µM (inactive) with NCI-H23. The GI50 in the experiment on NCI-H460 is > 100 µM (inactive); with NCI-H522, 70.8 µM (inactive); in the experiment with OVCAR-4, 73.6 µM (inactive); with PC-3, > 100 µM (inactive); with SK-MEL-5, 95.1 µM (inactive); with SW-620 it was > 100 µM (inactive). Besides, the values for the GI50 in the experiment with U-251 and with UO-31 were > 100 µM (inactive) and 82.6 µM (inactive), respectively.
For `CCOC(=O)Nc1sc2c(c1C#N)CCCC2`, the GI50 was > 100 µM (inactive) in the experiment on ACHN; > 100 µM (inactive) with COLO 205; > 100 µM (inactive) with DU-145; 74.1 µM (inactive) with HCT-116; 79.4 µM in the experiment with HCT-15; 78.7 µM (inactive) with Hs-578T. For the same compound, the GI50 in the experiment on IGROV-1 is > 100 µM (inactive); in the experiment with KM12, 25.9 µM (inactive); with MCF7, > 100 µM (inactive); with MDA-MB-435 it was 48.2 µM (inactive); in the experiment on MDA-N it was 50.4 µM (inactive); in the experiment with NCI-H23 it was > 100 µM (inactive). The GI50 with NCI-H460 is > 100 µM (inactive); in the experiment on NCI-H522 it was 64 µM (inactive); in the experiment with OVCAR-4 it was > 100 µM (inactive); in the experiment on PC-3, 66.4 µM (inactive); with SK-MEL-5, 71.6 µM (inactive); with SW-620, > 100 µM (inactive). The results for the GI50 in the experiment with U-251 and with UO-31 were > 100 µM (inactive) and 27.7 µM (inactive), respectively.
As to `O=C(O)C1C(C(=O)O)C23CC2(C(=O)O)C2(C(=O)O)CCC3=C3CCCC312` (stereo not given), the GI50 with ACHN is 9.51 µM (inactive); with COLO 205 it was 3.81 µM (inactive); in the experiment with DU-145, 11.7 µM (inactive); in the experiment with HCT-116, 6.85 µM (inactive); in the experiment with HCT-15 it was 15.1 µM; in the experiment on Hs-578T, 2.67 µM (inactive). Further, the GI50 in the experiment on IGROV-1 is 7.93 µM (inactive); in the experiment with KM12, 14 µM (inactive); in the experiment with MCF7, 11.7 µM (inactive); in the experiment with MDA-MB-435, 7.73 µM (inactive); with MDA-N, 4.79 µM (inactive); in the experiment on NCI-H23 it was 7.96 µM (inactive). The GI50 with NCI-H460 was 4.99 µM (inactive); with NCI-H522 it was 3.73 µM (inactive); in the experiment on OVCAR-4 it was 16 µM (inactive); in the experiment on PC-3, 5.45 µM (inactive); in the experiment on SK-MEL-5 it was 5.22 µM (inactive); with SW-620, 6.34 µM (inactive). For the same compound, the GI50 in the experiment on U-251 is 5.97 µM (inactive); with UO-31, 8.97 µM (inactive).
In the case of `CN(CCCCCl)P(=O)(OCc1ccc([N+](=O)[O-])o1)OCC1OC(n2ccc(N)nc2=O)C(O)C1O` (stereo not given), the GI50 was 11.7 µM (inactive) in the experiment on ACHN; 1.05 µM (active) in the experiment with COLO 205; 6.93 µM (inactive) in the experiment on DU-145; 3.68 µM (inactive) with HCT-116; 41.4 µM in the experiment on HCT-15; 1.26 µM (inactive) in the experiment with Hs-578T. For the same compound, the GI50 was 3.08 µM (inactive) in the experiment on IGROV-1; 3.24 µM (inactive) in the experiment on KM12; 1.82 µM (inactive) with MCF7; 1.98 µM (inactive) in the experiment on MDA-MB-435; 1.82 µM (inactive) in the experiment with MDA-N; 5.79 µM (inactive) in the experiment on NCI-H23. Moreover, the GI50 in the experiment with NCI-H460 was 2.29 µM (inactive); with NCI-H522, 3.15 µM (inactive); with OVCAR-4 it was 1.05 µM (active); in the experiment with PC-3, 2.39 µM (inactive); in the experiment with SK-MEL-5, 0.097 µM (active); with SW-620, 2.45 µM (inactive). Also, the GI50 is 2.14 µM (inactive) with U-251 and 14.2 µM (inactive) with UO-31.
As for `CCOc1ccccc1/N=N/C1C(=O)N(C(=O)CC(=O)Nc2ccccc2OC)N=C1C` (stereo not given), the GI50 is > 100 µM (inactive) in the experiment on ACHN; > 100 µM (inactive) with COLO 205; 71.3 µM (inactive) in the experiment on DU-145; 40.9 µM (inactive) in the experiment on HCT-116; 15.7 µM in the experiment on HCT-15; 1.78 µM (inactive) in the experiment with Hs-578T. The GI50 in the experiment with IGROV-1 is 50.8 µM (inactive); with KM12, > 100 µM (inactive); in the experiment with MCF7, > 100 µM (inactive); in the experiment on MDA-MB-435 it was > 100 µM (inactive); in the experiment with MDA-N it was > 100 µM (inactive); with NCI-H23, 80 µM (inactive). For the same compound, the GI50 is 42.4 µM (inactive) in the experiment on NCI-H460; 42.9 µM (inactive) in the experiment with NCI-H522; > 100 µM (inactive) in the experiment on OVCAR-4; > 100 µM (inactive) in the experiment on PC-3; > 100 µM (inactive) in the experiment on SK-MEL-5; > 100 µM (inactive) with SW-620. Also, the figures for the GI50 in the experiment on U-251 and with UO-31 were 27.3 µM (inactive) and 27.8 µM (inactive), respectively.
